In brackets after ≈: the same amount, converted by molar mass.
Columns and labels:
[1] = test system: E. faecalis ATCC 29212; test: direct antimicrobial activity (disc-diffusion, MIC, MBC); type: cell-based; conditions: Enterococcus faecalis, ATCC29212
In short: (§1)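 Testing of direct antimicrobial action relied on CLSI and EUCAST protocols, namely disc diffusion, MIC and cidal-concentration determinations. Each disc carried 0.4 mg of test agent.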

[2] = test system: E. faecium ATCC 6057; test: as above; type: cell-based; conditions: Enterococcus faecium, ATCC6057; for zone of inhibition at 0.4 mg/disc: 0.4 mg per disc, 9 mm disc (linezolid 0.03 mg, 6 mm disc), - no zone, read-out: Diameter of inhibition zone
In short: as §1

[3] = test system: S. aureus ATCC 43300 MRSA; test: as above; type: cell-based; conditions: Staphylococcus aureus
In short: as §1

[4] = test system: S. aureus ATCC 6538P; test: as above; type: cell-based; conditions: Staphylococcus aureus, ATCC6538P
In short: as §1

[5] = test system: S. epidermidis ATCC 12228; test: as above; type: cell-based; conditions: Staphylococcus epidermidis, ATCC12228; for zone of inhibition at 0.4 mg/disc: 0.4 mg per disc, 9 mm disc (linezolid 0.03 mg, 6 mm disc), - no zone, read-out: Diameter of inhibition zone
In short: as §1

[6] = test system: B. subtilis ATCC 6633; test: direct antimicrobial activity (disc-diffusion); type: cell-based; conditions: Bacillus subtilis, ATCC6633; 0.4 mg per disc, 9 mm disc (linezolid 0.03 mg, 6 mm disc); - no zone; read-out: Diameter of inhibition zone
In short: as §1

[7] = test system: C. parapsilosis ATCC 22019; test: antifungal activity (disc-diffusion, MIC, MFC); type: cell-based, Candida parapsilosis; conditions: Lodderomyces parapsilosis, ATCC22019; fluconazole by Etest
In short: as §1

[8] = test system: C. guilliermondii IBA 155; test: antifungal activity (disc-diffusion, MIC, MFC); type: cell-based, Candida guilliermondii; conditions: Meyerozyma guilliermondii, IBA155; fluconazole by Etest
In short: as §1

[9] = test system: C. krusei ATCC 6258; test: antifungal activity (disc-diffusion, MIC, MFC); type: cell-based, Candida krusei; conditions: Pichia kudriavzevii, ATCC6258; fluconazole by Etest
In short: as §1

[10] = test system: C. albicans ATCC 90028; test: antifungal activity (disc-diffusion, MIC, MFC); type: cell-based; conditions: Candida albicans, ATCC90028; fluconazole by Etest
In short: as §1

[11] = test system: C. tropicalis ATCC 750; test: antifungal activity (disc-diffusion, MIC, MFC); type: cell-based; conditions: Candida tropicalis, ATCC750; fluconazole by Etest
In short: as §1

[12] = test system: C. tropicalis IBA 171; test: antifungal activity (disc-diffusion, MIC, MFC); type: cell-based; conditions: Candida tropicalis, IBA171; fluconazole by Etest
In short: as §1

[13] = test system: S. cerevisiae ATCC 9763; test: antifungal activity (disc-diffusion, MIC, MFC); type: cell-based; conditions: Saccharomyces cerevisiae, ATCC9763; fluconazole by Etest
In short: as §1

[14] = test system: K. pneumoniae ATCC BAA 1705 KPC-2-positive; test: combination disc test CDT-KPC; type: cell-based; conditions: Klebsiella pneumoniae, BAA1705, read-out: Diameter of inhibition zone, MEM-10 disc with agent; for zone of inhibition at 300 µg/disc: agent 0.3 mg per disc
[15] = test system: P. aeruginosa MUW 700 cAmpC-positive; test: combination disc test CDT-AmpC; type: cell-based; conditions: Pseudomonas aeruginosa, read-out: Diameter of inhibition zone, CAZ-30 disc with agent; for zone of inhibition at 300 µg/disc: agent 0.3 mg per disc
[16] = test system: E. coli 77 CMY-2-positive; test: combination disc test CDT-AmpC; type: cell-based; conditions: Escherichia coli, read-out: Diameter of inhibition zone, CAZ-30 disc with agent; for zone of inhibition at 300 µg/disc: agent 0.3 mg per disc
[17] = test system: E. coli 77 CMY-2-positive; test: checkerboard microdilution, antibiotic plus tested agent; type: cell-based, Escherichia coli
In short: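 Read-out is the antibiotic MIC with agent present, plus FICI = combined/alone MIC ratios summed for both partners. Meropenem pairs served for carbapenemase strains and ceftazidime pairs for the AmpC strain. Agent or PBA was tested at 4–16 mg/L.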

[18] = MTT-based viability assay; type: cell-based; conditions: human, MRC-5 human fibroblasts, 72 h, read-out: Viability of MRC-5 cells (% of viable cells ± SD)
In short: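 Percent viable cells relative to control, measured in triplicate by MTT read-out at 570 nm. Cells: MRC-5 human fibroblasts cultured at 37 °C, 5% CO2 in MEME plus 10% FBS.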

[19] = 0.4 mg per disc, 9 mm disc (linezolid 0.03 mg, 6 mm disc), - no zone, read-out: Diameter of inhibition zone

| Compound | MIC [1] | MIC [2] | MIC [3] | MIC [4] | MIC [5] | zone of inhibition at 0.4 mg/disc [5] | zone of inhibition at 0.4 mg/disc [6] | MIC [7] | MIC [8] | MIC [9] | MIC [10] | MIC [11] | MIC [12] | MIC [13] | zone of inhibition at 300 µg/disc [14] | zone of inhibition at 300 µg/disc [15] | zone of inhibition at 300 µg/disc [16] | Average FICI with ceftazidime [17] | The lowest FICI with ceftazidime [17] | viability at 72 h, 16 mg/L [18] | also measured |
| --- | --- | --- | --- | --- | --- | --- | --- | --- | --- | --- | --- | --- | --- | --- | --- | --- | --- | --- | --- | --- | --- |
| OB(O)c1ccc(B(O)O)cc1 [1a] | 200 µg/mL (≈ 1210 µM) | 400 µg/mL (≈ 2410 µM) | 400 µg/mL (≈ 2410 µM) | 200 µg/mL (≈ 1210 µM) | 400 µg/mL (≈ 2410 µM) | 14 mm | 17 mm | > 400 µg/mL | > 400 µg/mL | > 400 µg/mL | > 400 µg/mL | > 400 µg/mL | > 400 µg/mL | 400 µg/mL (≈ 2410 µM) | 19 mm | 23 mm | 21 mm | 0.30 | 0.15 | 113 ± 12.5% | viability at 72 h, 32 mg/L [18]: 103 ± 11.8%; viability at 72 h, 64 mg/L [18]: 89.9 ± 11.4% |
| OB(O)c1ccccc1B(O)O [3a, phenylene-1,2-diboronic acid] | 400 µg/mL (≈ 2410 µM) | 50 µg/mL (≈ 302 µM) | 400 µg/mL (≈ 2410 µM) | 200 µg/mL (≈ 1210 µM) | 200 µg/mL (≈ 1210 µM) | 20 mm | 24 mm | 25 µg/mL (≈ 151 µM) | > 400 µg/mL | 400 µg/mL (≈ 2410 µM) | > 400 µg/mL | > 400 µg/mL | > 400 µg/mL | 25 µg/mL (≈ 151 µM) | 17 mm | 22 mm | 23 mm | 0.44 | 0.29 | 110 ± 9.3% | zone of inhibition at 0.4 mg/disc [2]: 16 mm; viability at 72 h, 32 mg/L [18]: 106 ± 10.6%; viability at 72 h, 64 mg/L [18]: 76.2 ± 4.2% |
| OB(O)c1cc(F)c(F)c(B(O)O)c1 [2d] | 200 µg/mL (≈ 991 µM) | 200 µg/mL (≈ 991 µM) | 100 µg/mL (≈ 496 µM) | 50 µg/mL (≈ 248 µM) | 50 µg/mL (≈ 248 µM) | 12 mm | 15 mm | > 400 µg/mL | 400 µg/mL (≈ 1980 µM) | 400 µg/mL (≈ 1980 µM) | 400 µg/mL (≈ 1980 µM) | > 400 µg/mL | > 400 µg/mL | > 400 µg/mL | – | – | – | 0.19 | 0.14 | – | zone of inhibition at 0.4 mg/disc [1, 19]: 14 mm; zone of inhibition at 0.4 mg/disc [2]: 14 mm; zone of inhibition at 0.4 mg/disc [3, 19]: 19 mm; zone of inhibition at 0.4 mg/disc [4, 19]: 22 mm; zone of inhibition at 100 µg/disc ([14]; agent 0.1 mg per disc): 6 mm; zone of inhibition at 100 µg/disc ([15]; agent 0.1 mg per disc): 18 mm; zone of inhibition at 100 µg/disc ([16]; agent 0.1 mg per disc): 21 mm; viability at 72 h, 12.5 mg/L ([18]; 12.5 mg/L): 107 ± 7.6%; viability at 72 h, 25 mg/L ([18]; 25 mg/L): 88 ± 4.3%; viability at 72 h, 50 mg/L ([18]; 50 mg/L): 75.2 ± 9.4% |

Reference: paper PMC10648349, “Aromatic Diboronic Acids as Effective KPC/AmpC Inhibitors” (Molecules, 2023)
